Experiments:
Assay in all cases: Kinase inhibitory activity, full kinase panel
Assay type in all cases: biochemical
Details in all cases: single concentration of 1 μM, read-out: %Inhibitory ability
[1] = molecular target: PLK4 (Homo sapiens, UniProt O00444)
Procedure: (§1) In order to measure inhibitory activity (% inhibitory ability) against a protein kinase with respect to the compound of the present invention, a biochemical assay was performed in a full kinase panel shown in the following Table 1. As an experimental compound, the (S)-5-((3-fluorophenyl)ethynyl)-N-(piperidin-3-yl)-3-ureidothiophene-2-carboxamide synthesized in Example 24 was used.

[2] = molecular target: SRPK1 (Homo sapiens, UniProt Q96SB4)
Procedure: as §1

[3] = molecular target: RIOK1 (Homo sapiens, UniProt Q9BRS2)
Procedure: as §1

[4] = molecular target: MAP3K2 (Homo sapiens, UniProt Q9Y2U5)
Procedure: as §1

[5] = molecular target: MERTK (Homo sapiens, UniProt Q12866)
Procedure: as §1

[6] = molecular target: PAK6 (Homo sapiens, UniProt Q9NQU5)
Procedure: as §1

[7] = molecular target: MAP4K4 (Homo sapiens, UniProt O95819)
Procedure: as §1

[8] = molecular target: DRAK1 (Homo sapiens, UniProt Q9UEE5)
Procedure: as §1

[9] = molecular target: MKNK2 (Homo sapiens, UniProt Q9HBH9)
Chain of MKNK2 (Q9HBH9 whole entry): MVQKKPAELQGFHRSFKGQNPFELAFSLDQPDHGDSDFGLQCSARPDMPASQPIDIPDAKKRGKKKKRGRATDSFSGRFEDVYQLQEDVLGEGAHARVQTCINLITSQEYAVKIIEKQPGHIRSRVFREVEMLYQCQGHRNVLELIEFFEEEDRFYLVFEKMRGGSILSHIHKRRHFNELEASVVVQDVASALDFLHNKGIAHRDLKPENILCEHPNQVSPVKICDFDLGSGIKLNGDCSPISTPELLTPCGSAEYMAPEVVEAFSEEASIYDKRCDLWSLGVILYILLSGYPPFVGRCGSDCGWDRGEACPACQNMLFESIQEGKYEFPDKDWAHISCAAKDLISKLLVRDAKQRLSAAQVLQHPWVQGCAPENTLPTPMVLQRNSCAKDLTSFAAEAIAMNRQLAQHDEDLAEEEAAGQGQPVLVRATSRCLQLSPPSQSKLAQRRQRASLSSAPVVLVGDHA
Procedure: as §1

[10] = molecular target: MST4 (Homo sapiens, UniProt Q9P289)
Chain of MST4 (Q9P289 whole entry): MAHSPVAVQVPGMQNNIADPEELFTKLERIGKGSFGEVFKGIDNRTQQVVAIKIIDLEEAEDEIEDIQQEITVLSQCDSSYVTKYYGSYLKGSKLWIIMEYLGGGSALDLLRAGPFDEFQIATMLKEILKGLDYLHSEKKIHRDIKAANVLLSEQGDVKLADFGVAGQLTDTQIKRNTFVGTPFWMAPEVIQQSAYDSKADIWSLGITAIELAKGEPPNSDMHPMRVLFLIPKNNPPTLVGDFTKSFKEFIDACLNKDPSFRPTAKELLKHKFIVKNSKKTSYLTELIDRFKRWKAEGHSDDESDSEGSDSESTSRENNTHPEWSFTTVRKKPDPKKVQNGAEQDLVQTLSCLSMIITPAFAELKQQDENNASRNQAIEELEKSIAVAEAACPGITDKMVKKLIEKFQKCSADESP
Procedure: as §1

[11] = molecular target: MLK1 (Homo sapiens, UniProt P80192)
Procedure: as §1

[12] = molecular target: FAK (Homo sapiens, UniProt Q05397)
Procedure: as §1

[13] = molecular target: PHKG2 (Homo sapiens, UniProt P15735)
Chain of PHKG2 (P15735 whole entry): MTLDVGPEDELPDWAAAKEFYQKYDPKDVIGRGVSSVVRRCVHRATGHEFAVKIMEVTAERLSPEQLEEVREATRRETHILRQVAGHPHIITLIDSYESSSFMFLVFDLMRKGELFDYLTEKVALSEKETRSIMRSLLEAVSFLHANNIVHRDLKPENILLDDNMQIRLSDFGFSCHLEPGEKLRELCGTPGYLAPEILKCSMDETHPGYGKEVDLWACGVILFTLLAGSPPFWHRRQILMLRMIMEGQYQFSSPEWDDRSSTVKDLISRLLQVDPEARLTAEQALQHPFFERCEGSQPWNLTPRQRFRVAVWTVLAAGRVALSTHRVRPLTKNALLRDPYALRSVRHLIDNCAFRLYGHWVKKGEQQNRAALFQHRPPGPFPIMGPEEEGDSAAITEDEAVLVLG
Procedure: as §1

[14] = molecular target: MST1 (Homo sapiens, UniProt Q13043)
Chain of MST1 (Q13043 whole entry): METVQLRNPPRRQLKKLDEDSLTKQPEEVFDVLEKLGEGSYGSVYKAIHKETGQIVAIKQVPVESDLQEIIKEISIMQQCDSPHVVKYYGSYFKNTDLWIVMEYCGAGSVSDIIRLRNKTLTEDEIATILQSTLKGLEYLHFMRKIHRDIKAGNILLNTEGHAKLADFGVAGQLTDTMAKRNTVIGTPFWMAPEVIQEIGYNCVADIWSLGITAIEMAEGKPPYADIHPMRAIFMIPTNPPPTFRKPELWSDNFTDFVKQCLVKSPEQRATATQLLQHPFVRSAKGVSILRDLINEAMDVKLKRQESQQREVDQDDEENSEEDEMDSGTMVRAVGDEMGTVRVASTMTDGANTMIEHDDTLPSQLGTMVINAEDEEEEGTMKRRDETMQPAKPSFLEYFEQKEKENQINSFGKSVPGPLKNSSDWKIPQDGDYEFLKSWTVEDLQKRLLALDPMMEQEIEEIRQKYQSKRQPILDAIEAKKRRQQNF
Procedure: as §1

[15] = molecular target: MAPKAPK5 (Homo sapiens, UniProt Q8IW41)
Procedure: as §1

[16] = molecular target: ANKK1 (Homo sapiens, UniProt Q8NFD2)
Procedure: as §1

[17] = molecular target: TAK1 (Homo sapiens, UniProt O43318)
Procedure: as §1

[18] = molecular target: TGFBR2 (Homo sapiens, UniProt P37173)
Procedure: as §1

[19] = molecular target: MINK (Homo sapiens, UniProt Q8N4C8)
Procedure: as §1

[20] = molecular target: FLT3 (Homo sapiens, UniProt P36888)
Procedure: as §1

[21] = molecular target: ZAP70 (Homo sapiens, UniProt P43403)
Procedure: as §1

[22] = molecular target: AAK1 (Homo sapiens, UniProt Q2M2I8)
Procedure: as §1

[23] = molecular target: ULK1 (Homo sapiens, UniProt O75385)
Procedure: as §1

[24] = molecular target: TRKB (Homo sapiens, UniProt Q16620)
Chain of TRKB (Q16620 32-822, species assumed): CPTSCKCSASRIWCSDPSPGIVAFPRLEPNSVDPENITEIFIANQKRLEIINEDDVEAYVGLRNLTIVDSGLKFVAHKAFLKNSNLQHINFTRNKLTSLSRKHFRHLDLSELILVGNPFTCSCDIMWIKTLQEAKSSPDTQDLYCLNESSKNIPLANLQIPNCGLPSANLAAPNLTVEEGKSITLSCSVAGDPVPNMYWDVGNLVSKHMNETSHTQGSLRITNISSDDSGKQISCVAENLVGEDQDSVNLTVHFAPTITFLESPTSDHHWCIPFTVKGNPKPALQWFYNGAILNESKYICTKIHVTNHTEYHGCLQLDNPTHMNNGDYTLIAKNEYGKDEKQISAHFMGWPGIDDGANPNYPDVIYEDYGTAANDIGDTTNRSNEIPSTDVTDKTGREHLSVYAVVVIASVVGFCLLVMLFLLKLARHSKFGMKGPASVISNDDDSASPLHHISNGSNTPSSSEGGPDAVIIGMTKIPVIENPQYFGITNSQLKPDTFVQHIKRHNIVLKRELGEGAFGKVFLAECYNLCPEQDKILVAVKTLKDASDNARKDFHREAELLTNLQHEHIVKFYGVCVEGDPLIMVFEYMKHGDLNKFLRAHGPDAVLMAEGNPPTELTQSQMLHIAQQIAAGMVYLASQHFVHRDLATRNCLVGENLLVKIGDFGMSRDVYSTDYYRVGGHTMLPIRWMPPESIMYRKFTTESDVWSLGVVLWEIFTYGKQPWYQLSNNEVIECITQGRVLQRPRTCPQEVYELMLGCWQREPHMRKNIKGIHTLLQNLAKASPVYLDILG
Procedure: as §1

[25] = molecular target: SBK1 (Homo sapiens, UniProt Q52WX2)
Procedure: as §1

[26] = molecular target: MAP4K5 (Homo sapiens, UniProt Q9Y4K4)
Chain of MAP4K5 (Q9Y4K4 whole entry, species assumed): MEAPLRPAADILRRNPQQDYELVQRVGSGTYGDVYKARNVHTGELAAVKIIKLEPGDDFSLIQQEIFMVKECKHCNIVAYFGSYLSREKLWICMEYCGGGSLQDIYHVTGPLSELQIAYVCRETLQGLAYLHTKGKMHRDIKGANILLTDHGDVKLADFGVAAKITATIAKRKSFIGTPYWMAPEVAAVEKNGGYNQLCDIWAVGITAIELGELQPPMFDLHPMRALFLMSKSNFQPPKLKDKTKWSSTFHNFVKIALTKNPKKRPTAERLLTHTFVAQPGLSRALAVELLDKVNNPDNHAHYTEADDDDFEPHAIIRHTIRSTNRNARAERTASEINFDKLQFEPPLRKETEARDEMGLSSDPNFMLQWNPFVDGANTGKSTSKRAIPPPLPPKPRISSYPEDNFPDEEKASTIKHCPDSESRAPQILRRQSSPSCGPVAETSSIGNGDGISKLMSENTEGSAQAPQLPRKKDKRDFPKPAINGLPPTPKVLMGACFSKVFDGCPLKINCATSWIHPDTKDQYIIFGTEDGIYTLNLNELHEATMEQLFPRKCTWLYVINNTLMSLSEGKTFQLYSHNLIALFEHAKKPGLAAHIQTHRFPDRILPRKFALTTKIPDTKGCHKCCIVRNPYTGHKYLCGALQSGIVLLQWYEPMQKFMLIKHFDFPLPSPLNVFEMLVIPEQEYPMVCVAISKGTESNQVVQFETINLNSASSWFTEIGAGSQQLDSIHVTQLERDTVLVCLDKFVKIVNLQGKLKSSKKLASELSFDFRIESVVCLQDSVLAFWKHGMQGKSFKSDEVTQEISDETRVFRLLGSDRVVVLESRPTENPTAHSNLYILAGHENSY
Procedure: as §1

[27] = molecular target: YANK1 (Homo sapiens, UniProt Q8WU08)
Procedure: as §1

[28] = molecular target: MEK2 (Homo sapiens, UniProt P36507)
Chain of MEK2 (P36507 whole entry, species assumed): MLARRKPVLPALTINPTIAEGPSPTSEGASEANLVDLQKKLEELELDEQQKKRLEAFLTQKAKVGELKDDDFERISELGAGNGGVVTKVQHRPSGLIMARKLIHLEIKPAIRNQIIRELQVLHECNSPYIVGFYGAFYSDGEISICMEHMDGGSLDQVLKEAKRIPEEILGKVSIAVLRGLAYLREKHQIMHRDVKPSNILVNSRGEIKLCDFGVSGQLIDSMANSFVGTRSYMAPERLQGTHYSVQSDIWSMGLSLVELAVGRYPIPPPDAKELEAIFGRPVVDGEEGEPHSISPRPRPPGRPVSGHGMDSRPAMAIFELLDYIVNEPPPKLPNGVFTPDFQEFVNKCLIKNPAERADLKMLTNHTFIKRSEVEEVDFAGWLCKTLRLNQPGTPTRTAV
Procedure: as §1

[29] = molecular target: PRKX (Homo sapiens, UniProt P51817)
Procedure: as §1

[30] = molecular target: MLK3 (Homo sapiens, UniProt Q16584)
Procedure: as §1

[31] = molecular target: CSF1R (Homo sapiens, UniProt P07333)
Procedure: as §1

[32] = molecular target: CAMK1 (Homo sapiens, UniProt Q14012)
Procedure: as §1

[33] = molecular target: BUB1 (Homo sapiens, UniProt O43683)
Procedure: as §1

[34] = molecular target: PRKG2 (Homo sapiens, UniProt Q13237)
Chain of PRKG2 (Q13237 whole entry): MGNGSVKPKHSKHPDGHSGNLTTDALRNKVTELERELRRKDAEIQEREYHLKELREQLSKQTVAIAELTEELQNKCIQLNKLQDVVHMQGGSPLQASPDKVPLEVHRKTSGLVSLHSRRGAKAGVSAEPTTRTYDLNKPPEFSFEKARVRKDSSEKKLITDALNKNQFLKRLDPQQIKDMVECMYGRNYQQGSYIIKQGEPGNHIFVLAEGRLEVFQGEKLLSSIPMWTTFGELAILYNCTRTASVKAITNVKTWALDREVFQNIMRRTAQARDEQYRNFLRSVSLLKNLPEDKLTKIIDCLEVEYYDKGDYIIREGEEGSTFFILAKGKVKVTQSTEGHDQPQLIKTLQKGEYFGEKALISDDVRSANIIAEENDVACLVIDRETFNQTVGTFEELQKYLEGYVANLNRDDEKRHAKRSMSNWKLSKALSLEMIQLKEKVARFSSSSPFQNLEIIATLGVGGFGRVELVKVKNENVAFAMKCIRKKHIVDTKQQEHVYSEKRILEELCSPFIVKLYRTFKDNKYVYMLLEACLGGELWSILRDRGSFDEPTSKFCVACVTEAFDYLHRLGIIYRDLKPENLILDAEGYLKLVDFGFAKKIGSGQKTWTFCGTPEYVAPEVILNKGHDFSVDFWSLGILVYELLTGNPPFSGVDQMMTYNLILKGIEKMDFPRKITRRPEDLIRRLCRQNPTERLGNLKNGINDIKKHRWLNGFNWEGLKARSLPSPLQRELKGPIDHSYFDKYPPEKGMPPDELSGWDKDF
Procedure: as §1

[35] = molecular target: FYN (Homo sapiens, UniProt P06241)
Procedure: as §1

[36] = molecular target: ULK2 (Homo sapiens, UniProt Q8IYT8)
Procedure: as §1

[37] = molecular target: KIT (Homo sapiens, UniProt P10721)
Procedure: as §1

[38] = molecular target: CSK (Homo sapiens, UniProt P41240)
Chain of CSK (P41240 whole entry, species assumed): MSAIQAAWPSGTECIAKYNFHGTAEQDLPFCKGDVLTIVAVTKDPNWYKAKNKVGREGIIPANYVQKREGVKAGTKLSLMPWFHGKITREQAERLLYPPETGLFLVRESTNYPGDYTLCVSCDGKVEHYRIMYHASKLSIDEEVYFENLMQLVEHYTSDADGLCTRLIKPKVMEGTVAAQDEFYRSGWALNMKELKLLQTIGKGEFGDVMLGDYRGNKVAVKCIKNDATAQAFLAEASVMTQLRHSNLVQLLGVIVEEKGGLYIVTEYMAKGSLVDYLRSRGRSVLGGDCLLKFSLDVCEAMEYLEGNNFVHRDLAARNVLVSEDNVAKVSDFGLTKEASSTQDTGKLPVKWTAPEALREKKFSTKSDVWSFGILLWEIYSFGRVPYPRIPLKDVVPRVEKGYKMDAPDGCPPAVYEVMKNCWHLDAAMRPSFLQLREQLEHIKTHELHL
Procedure: as §1

[39] = molecular target: MEK5 (Homo sapiens, UniProt Q13163)
Procedure: as §1

[40] = molecular target: TRKA (Homo sapiens, UniProt P04629)
Procedure: as §1

[41] = molecular target: TSSK3 (Homo sapiens, UniProt Q96PN8)
Procedure: as §1

[42] = molecular target: HCK (Homo sapiens, UniProt P08631)
Procedure: as §1

## Cc1ccc(C#Cc2cc(NC(N)=O)c(C(=O)N[C@H]3CCCNC3)s2)cc1 [Example 24, (S)—N-(piperidin-3-yl)-5-(p-tolylethynyl)-3-ureidothiophene-2-carboxamide]
[1]
  inhibition at 1 µM: 81%
[2]
  inhibition at 1 µM: 83%
[3]
  inhibition at 1 µM: 77%
[4]
  inhibition at 1 µM: 97.7%
[5]
  inhibition at 1 µM: 96.1%
[6]
  inhibition at 1 µM: 90.3%
[7]
  inhibition at 1 µM: 91.4%
[8]
  inhibition at 1 µM: 99.5%
[9]
  inhibition at 1 µM: 92.7%
[10]
  inhibition at 1 µM: 83%
[11]
  inhibition at 1 µM: 95.9%
[12]
  inhibition at 1 µM: 75%
[13]
  inhibition at 1 µM: 89%
[14]
  inhibition at 1 µM: 96.6%
[15]
  inhibition at 1 µM: 82%
[16]
  inhibition at 1 µM: 93.3%
[17]
  inhibition at 1 µM: 91.5%
[18]
  inhibition at 1 µM: 72%
[19]
  inhibition at 1 µM: 97.1%
[20]
  inhibition at 1 µM: 99.6%
[21]
  inhibition at 1 µM: 63%
[22]
  inhibition at 1 µM: 80%
[23]
  inhibition at 1 µM: 99.8%
[24]
  inhibition at 1 µM: 97.2%
[25]
  inhibition at 1 µM: 66%
[26]
  inhibition at 1 µM: 85%
[27]
  inhibition at 1 µM: 95.5%
[28]
  inhibition at 1 µM: 93.3%
[29]
  inhibition at 1 µM: 73%
[30]
  inhibition at 1 µM: 90.8%
[31]
  inhibition at 1 µM: 98.4%
[32]
  inhibition at 1 µM: 67%
[33]
  inhibition at 1 µM: 97.4%
[34]
  inhibition at 1 µM: 96.6%
[35]
  inhibition at 1 µM: 91.5%
[36]
  inhibition at 1 µM: 99.7%
[37]
  inhibition at 1 µM: 99.8%
[38]
  inhibition at 1 µM: 92.1%
[39]
  inhibition at 1 µM: 99.9%
[40]
  inhibition at 1 µM: 100%
[41]
  inhibition at 1 µM: 72%
[42]
  inhibition at 1 µM: 94.9%
